Laboratory results: paper PMC7933316 (2021)

Legend:
Assay in all cases: SPR (equilibrium)
[1] = system: TZea-927 large stem loop (T7_zea927_polyA) (RNA, aptamer) GGGGUCCCUCCAUGCGACCCAGUGUGAUACGUGGACAGGACCCCCAAAAAAAAAAAAAAAAAAAAAAAA; conditions: Na+ (1.5 M NaCl [sic]), Mg2+ 0.5 mM; HBS-N (0.1 M HEPES [sic]), pH 7.4
[2] = system: TZea-579 (full length, G12A, SPR form) (RNA, ribozyme) GGGAAACAAACAAAGCUGUCACCGGGUAGAACAGAAUGCAAGUGCGUAGAAGCGCCUCCGGUCUGACGAGUCCUUAGCACGGACAAAACAGCAAAAAAAAAAAAAAAAAAAAAAAA; conditions: Na+ (1.5 M NaCl [sic]), Mg2+ 0.5 mM; HBS-N (0.1 M HEPES [sic]), pH 7.4
[3] = system: TZea-927 (full length, G12A, SPR form) (RNA, ribozyme) GGGAAACAAACAAAGCUGUCACCGGAAACUGGAUCUGGUCUGAUGAGUCCCUCCAUGCGACCCAGUGUGAUACGUGGACAGGACAAAACAGCAAAAAAAAAAAAAAAAAAAAAAAA; conditions: Na+ (1.5 M NaCl [sic]), Mg2+ 0.5 mM; HBS-N (0.1 M HEPES [sic]), pH 7.4
[4] = system: TZea-579 large stem loop (RNA, aptamer) GGGACCGGGUAGAACAGAAUGCAAGUGCGUAGAAGCGCCUCCGGUCCCCAAAAAAAAAAAAAAAAAAAAAAAA; conditions: Na+ (1.5 M NaCl [sic]), Mg2+ 0.5 mM; HBS-N (0.1 M HEPES [sic]), pH 7.4
[5] = system: Gard-547 (full length, G12A, SPR form) (RNA, ribozyme) GGGAAACAAACAAAGCUGUCACCGGAAUAGUCGAUGGGUGCUACAUAGCGCCGGAAUCCAGUCUGAUGAGUCUCUCGGCAGGACAAAACAGCAAAAAAAAAAAAAAAAAAAAAAAA; conditions: Na+ (1.5 M NaCl [sic]), Mg2+ 0.5 mM; HBS-N (0.1 M HEPES [sic]), pH 7.4; no replicates
[6] = system: SRet-584 (full length, G12A, SPR form) (RNA, ribozyme) GGGAAACAAACAAAGCUGUCACUGGACGCAAAAAUUCCAGUCUGAUGAGUCCAUAAUGAGCAACAACACGAUUCCUCAUGCGGGACAAAACAGCAAAAAAAAAAAAAAAAAAAAAAAA; conditions: Na+ (1.5 M NaCl [sic]), Mg2+ 0.5 mM; HBS-N (0.1 M HEPES [sic]), pH 7.4
[7] = system: SRet-760 (full length, G12A, SPR form) (RNA, ribozyme) GGGAAACAAACAAAGCUGUCACUGGACCCUAACAUUCCAGUCUGAUGAGUCCUAUAGGCACGCUUCCCCCAGGUGUAGGGAGGACAAAACAGCAAAAAAAAAAAAAAAAAAAAAAAA; conditions: Na+ (1.5 M NaCl [sic]), Mg2+ 0.5 mM; HBS-N (0.1 M HEPES [sic]), pH 7.4
[8] = system: SRet-760 large stem loop (T7_SRet760_polyA) (RNA, aptamer) GGGGUCCUAUAGGCACGCUUCCCCCAGGUGUAGGGAGGACCCCCAAAAAAAAAAAAAAAAAAAAAAAA; conditions: Na+ (1.5 M NaCl [sic]), Mg2+ 0.5 mM; HBS-N (0.1 M HEPES [sic]), pH 7.4
[9] = system: Nosc-441 (full length, G12A, SPR form) (RNA, ribozyme) GGGAAACAAACAAAGCUGUCACCGGAAGAACUGACAUUUGCAACGUCAUGUGCGAUGUCCAACGUGUAGCCACCUAGGCGUACAGAUCCGGUCUGAUGAGUCCUCGAUGGACAAAACAGCAAAAAAAAAAAAAAAAAAAAAAAA; conditions: Na+ (1.5 M NaCl [sic]), Mg2+ 0.5 mM; HBS-N (0.1 M HEPES [sic]), pH 7.4
[10] = system: Nosc-786 (full length, G12A, SPR form) (RNA, ribozyme) GGGAAACAAACAAAGCUGUCACCGGAAGAACUUACAUUUGCAACGUCAUGUGCGAUGUCCAACGUGUAGCCACCUAGGCGUACAGAUCCGGUCCGAUGAGUCCUCGAUGGACAAAACAGCAAAAAAAAAAAAAAAAAAAAAAAA; conditions: Na+ (1.5 M NaCl [sic]), Mg2+ 0.5 mM; HBS-N (0.1 M HEPES [sic]), pH 7.4
[11] = system: Nosc-441 large stem loop (RNA, aptamer) GGGACCGGAAGAACUGACAUUUGCAACGUCAUGUGCGAUGUCCAACGUGUAGCCACCUAGGCGUACAGAUCCGGUCCCCAAAAAAAAAAAAAAAAAAAAAAAA; conditions: Na+ (1.5 M NaCl [sic]), Mg2+ 0.5 mM; HBS-N (0.1 M HEPES [sic]), pH 7.4
[12] = system: Theo-421 (full length, G12A, SPR form) (RNA, ribozyme) GGGAAACAAACAAAGCUGUCACCGGAAUGUGAGUCCGGUCUGAUGAGUCCCUCAUGUGCCUUCCAGCGGUACGAUACUCAGGACAAAACAGCAAAAAAAAAAAAAAAAAAAAAAAA; conditions: Na+ (1.5 M NaCl [sic]), Mg2+ 0.5 mM; HBS-N (0.1 M HEPES [sic]), pH 7.4
[13] = system: Theo-421 truncation, 1st suboptimal structure (T7_theo421_polyA_subopt1) (RNA, aptamer) GGGUGAGUCCCUCAUGUGCCUUCCAGCGGUACGAUACUCACCCCAAAAAAAAAAAAAAAAAAAAAAAA; conditions: Na+ (1.5 M NaCl [sic]), Mg2+ 0.5 mM; HBS-N (0.1 M HEPES [sic]), pH 7.4
[14] = system: Theo-421 truncation, minimum free energy structure (T7_theo421_polyA_MFE) (RNA, aptamer) GGGGUCCCUCAUGUGCCUUCCAGCGGUACGAUACUCAGGACCCCCAAAAAAAAAAAAAAAAAAAAAAAA; conditions: Na+ (1.5 M NaCl [sic]), Mg2+ 0.5 mM; HBS-N (0.1 M HEPES [sic]), pH 7.4
[15] = system: Acic-145 large stem loop (T7_acic145_polyA) (RNA, aptamer) GGGACCGGAAUAACCGAAGUAGUUUAUGGGCUACCGAAAUCCGGUCCCCAAAAAAAAAAAAAAAAAAAAAAAA; conditions: Na+ (1.5 M NaCl [sic]), Mg2+ 0.5 mM; HBS-N (0.1 M HEPES [sic]), pH 7.4
[16] = system: Acic-145 (full length, G12A, SPR form) (RNA, ribozyme) GGGAAACAAACAAAGCUGUCACCGGAAUAACCGAAGUAGUUUAUGGGCUACCGAAAUCCGGUCUGAUGAGUCCUCGGGGUGGACAAAACAGCAAAAAAAAAAAAAAAAAA; conditions: Na+ (1.5 M NaCl [sic]), Mg2+ 0.5 mM; HBS-N (0.1 M HEPES [sic]), pH 7.4

In the case of `C/C(=C\CNc1ncnc2[nH]cnc12)CO`, the binding [1] is reported as “no”, the KD [2] is reported as 3.1 ± 0.5 µM and the KD [3] is reported as 62 ± 20 µM. The KD [4] was 37 ± 3 µM.

`CCNCc1nc2c(N)nc3ccccc3c2n1CC(C)(C)O` gave a KD [5] of 0.0101 µM.

`COc1ccc(C[C@H]2c3cc(O)c(OC)cc3CCN2C)cc1O` was tested, and the “Equilibrium KD” value [6] was 0.465 µM, the KD [7] was 0.15 ± 0.01 µM and the binding [8] was “no”.

In the case of `COc1ccc2c(c1OC)C(=O)O[C@@H]2[C@H]1c2c(cc3c(c2OC)OCO3)CCN1C`, the KD [9] is reported as 13 ± 2 µM, the “Equilibrium KD” value [10] is reported as 28.7 µM and the KD [11] is reported as 20 ± 7 µM.

With `Cn1c(=O)c2[nH]cnc2n(C)c1=O` the KD [12] was 68 ± 20 µM, the KD [13] was 17.0 ± 0.7 µM and the binding [14] was “no”.

Work on `Nc1nc2c(ncn2COCCO)c(=O)[nH]1` yielded a KD [15] of 0.700 ± 0.004 µM and a KD [16] of 1.5 ± 0.3 µM.
